Holding throughout (assay type): biochemical
The test system of test [1] is plasma. As to the kind of experiment: APTT clotting time, RPR spiked in plasma. Here is the method:
(§1) • 2. Follow the reaction kinetically for 5 min. • C) Calculation: Measure the initial velocity, however, ignore the lag phase. In general measure the initial rate of the linear portion of the time course. Use initial rates of clinical samples at different time points and then compared to the pre-dosing control to calculate % inhibition. Various concentrations of the compound RPR spiked in plasma were assayed for PT, APTT and PVVT prolongation. […] RVV-X induced clotting time (RVVT) assay could be conveniently used for monitoring the effect of RPR on patient's endogenous plasma FXa.

For another test, the target named is T1, endogenous plasma FXa (Homo sapiens, UniProt P00742).
T1 construct: monitoring the effect of RPR on patient's endogenous plasma FXa; from tissue
T1 sequence (P00742 235-488 limits assumed): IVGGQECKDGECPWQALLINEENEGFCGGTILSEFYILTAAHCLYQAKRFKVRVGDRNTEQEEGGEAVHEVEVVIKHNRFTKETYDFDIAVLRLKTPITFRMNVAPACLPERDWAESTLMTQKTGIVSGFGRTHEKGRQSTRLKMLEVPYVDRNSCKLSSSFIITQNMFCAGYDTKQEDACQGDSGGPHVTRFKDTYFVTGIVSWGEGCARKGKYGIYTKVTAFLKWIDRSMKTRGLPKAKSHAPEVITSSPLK
T1 sequence (P00742 41-179 partner limits assumed): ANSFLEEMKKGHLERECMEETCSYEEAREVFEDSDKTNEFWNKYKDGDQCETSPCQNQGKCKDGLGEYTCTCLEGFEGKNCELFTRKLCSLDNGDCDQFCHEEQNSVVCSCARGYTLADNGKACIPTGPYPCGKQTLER
The test is described as follows: Russell's viper venom-induced clotting time (RVVT), RPR spiked in plasma. Here is the method: Dose-dependent clotting time prolongation curve from the compound methyl-3-(4′-N-oxopyridylphenoyl)-3-methyl-2-(m-amidinobenzyl)-propionate (hereinafter “RPR”) or the trifluoroacetate salt of RPR: • 1. Add 0.1 ml FXa buffer, 0.1 ml serial dilution of RPR, 0.1 ml normal pooled or patients plasma to the cuvette then 0.1 ml of RVV-Ca (MLA-800 dotter add this reagent automatically). • 2. Measure clotting time. • 3. Construct the dose-dependent clotting time prolongation curve. • 4. Calculate concentration for 2×RVVT
as §1

Test [2] concerns plasma. The test is described as follows: PT clotting time, RPR spiked in plasma. As to the method: as §1

Consider `COC(=O)C(Cc1cccc(C(=N)N)c1)C(C)C(=O)c1ccc(-c2cc[n+]([O-])cc2)cc1` (stereo not drawn) [RPR, methyl-3-(4′-N-oxopyridylphenoyl)-3-methyl-2-(m-amidinobenzyl)-propionate], for which the entries for the “fold-change of APTT” value with plasma [1] (RPR 50 μg/ml spiked in plasma), in the test with plasma [1] (RPR 166 μg/ml spiked in plasma) and in the test on plasma [1] (RPR 322 μg/ml spiked in plasma) were 1.08 fold, 1.41 fold and 1.5 fold, respectively. The “fold-change of RVVT” value on endogenous plasma FXa (RPR 50 μg/ml spiked in plasma) is reported as 1.33 fold; on endogenous plasma FXa (RPR 166 μg/ml spiked in plasma) it was 2.66 fold; at endogenous plasma FXa (RPR 322 μg/ml spiked in plasma), 4.41 fold. Further, the “fold-change of PT” value was found to be 1.08 fold with plasma [2] (RPR 50 μg/ml spiked in plasma), 1.16 fold in the test on plasma [2] (RPR 166 μg/ml spiked in plasma) and 1.25 fold in the test on plasma [2] (RPR 322 μg/ml spiked in plasma).

Source of the values: patent publication US7220553B2, “Use of Russell's viper venom-induced plasma factor Xa activity to monitor the activity of factor Xa inhibitors” (Sanofi-Aventis Deutschland GmbH, priority 1999, dated 2007).
